Assay results taken from patent US9707233B2, “Heterocyclylamines as PI3K inhibitors” (Incyte Corporation, priority 2011, dated 2017).

How the values were obtained:
PI3Kδ = PI3Kδ (Homo sapiens (Human), UniProt O00329); assay: PI3K enzyme assay, [γ-33P]ATP filter plate (Example A2), isoform δ; type: biochemical; settings: as determined by Assay A2; 1000 μM ATP, 2.9 nM PI3Kδ
Description: PI3K isoforms α, β, δ and γ are purchased from Millipore (Bedford, Mass.).
Inhibitors are first diluted serially in DMSO and added to the plate wells before the addition of other reaction components. The final concentration of DMSO in the assay is 0.5%. The PI3K assays are carried out at room temperature in 20 mM MOPS, pH 6.7, 10 mM MgCl2, 5 mM DTT and CHAPS 0.03%. The reaction mixture is prepared containing 50 μM PIP2, kinase and varying concentration of inhibitors. Reactions are initiated by the addition of ATP containing 2.2 μCi [γ-^33P]ATP to a final concentration of 1000 μM. […] Reactions are incubated for 180 minutes and terminated by the addition of 100 μL of 1 M potassium phosphate pH 8.0, 30 mM EDTA quench buffer. A 100 μL aliquot of the reaction solution are then transferred to 96-well Millipore MultiScreen IP 0.45 μm PVDF filter plate (The filter plate is prewetted with 200 μL 100% ethanol, distilled water, and 1 M potassium phosphate pH 8.0, respectively). […] After drying by aspiration and blotting, the plate is air dried in an incubator at 37° C. overnight. Packard TopCount adapter (Millipore) is then attached to the plate followed with addition of 120 μL Microscint 20 scintillation cocktail (Perkin Elmer) in each well. After the plate sealing, the radioactivity of the product is determined by scintillation counting on Topcount (Perkin-Elmer). […]

PI3Kδ (p110δ/p85α) = PI3Kδ (p110δ/p85α) (Homo sapiens (Human), UniProt O00329); assay: PI3Kδ scintillation proximity assay (Example A3); type: biochemical; settings: 20 μM ATP, 20 μM PIP2, 4 nM PI3Kδ; read-out: PI3Kδ SPA IC50
PI3Kδ (p110δ/p85α), sequence (O00329 whole entry): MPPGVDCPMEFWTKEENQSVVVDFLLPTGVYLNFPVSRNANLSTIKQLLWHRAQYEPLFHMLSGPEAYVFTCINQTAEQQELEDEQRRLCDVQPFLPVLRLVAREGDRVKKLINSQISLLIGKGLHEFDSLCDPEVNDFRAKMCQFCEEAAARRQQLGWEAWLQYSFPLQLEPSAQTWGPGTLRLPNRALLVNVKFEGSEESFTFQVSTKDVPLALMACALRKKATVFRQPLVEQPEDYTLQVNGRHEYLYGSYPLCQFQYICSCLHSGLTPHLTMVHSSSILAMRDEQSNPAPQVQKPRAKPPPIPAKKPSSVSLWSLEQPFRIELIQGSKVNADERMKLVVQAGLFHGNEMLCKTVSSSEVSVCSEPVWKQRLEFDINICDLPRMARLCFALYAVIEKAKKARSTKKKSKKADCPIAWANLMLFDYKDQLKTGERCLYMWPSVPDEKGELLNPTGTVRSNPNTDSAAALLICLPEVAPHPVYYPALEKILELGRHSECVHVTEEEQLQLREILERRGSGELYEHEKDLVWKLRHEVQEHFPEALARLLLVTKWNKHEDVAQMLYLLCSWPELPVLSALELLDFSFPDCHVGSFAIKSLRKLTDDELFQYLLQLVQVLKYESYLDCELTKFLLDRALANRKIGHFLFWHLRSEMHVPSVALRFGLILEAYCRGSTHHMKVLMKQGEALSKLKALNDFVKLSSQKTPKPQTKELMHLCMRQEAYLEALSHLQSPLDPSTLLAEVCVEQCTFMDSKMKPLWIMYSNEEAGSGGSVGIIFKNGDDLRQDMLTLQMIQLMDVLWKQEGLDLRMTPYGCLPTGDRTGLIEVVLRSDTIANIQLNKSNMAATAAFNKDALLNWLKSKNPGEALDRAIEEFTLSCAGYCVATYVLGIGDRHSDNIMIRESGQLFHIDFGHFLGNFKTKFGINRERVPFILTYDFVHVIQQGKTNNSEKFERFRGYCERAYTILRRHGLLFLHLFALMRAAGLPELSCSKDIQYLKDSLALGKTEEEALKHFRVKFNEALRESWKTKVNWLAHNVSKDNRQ
PI3Kδ (p110δ/p85α), sequence (P27986 whole entry partner): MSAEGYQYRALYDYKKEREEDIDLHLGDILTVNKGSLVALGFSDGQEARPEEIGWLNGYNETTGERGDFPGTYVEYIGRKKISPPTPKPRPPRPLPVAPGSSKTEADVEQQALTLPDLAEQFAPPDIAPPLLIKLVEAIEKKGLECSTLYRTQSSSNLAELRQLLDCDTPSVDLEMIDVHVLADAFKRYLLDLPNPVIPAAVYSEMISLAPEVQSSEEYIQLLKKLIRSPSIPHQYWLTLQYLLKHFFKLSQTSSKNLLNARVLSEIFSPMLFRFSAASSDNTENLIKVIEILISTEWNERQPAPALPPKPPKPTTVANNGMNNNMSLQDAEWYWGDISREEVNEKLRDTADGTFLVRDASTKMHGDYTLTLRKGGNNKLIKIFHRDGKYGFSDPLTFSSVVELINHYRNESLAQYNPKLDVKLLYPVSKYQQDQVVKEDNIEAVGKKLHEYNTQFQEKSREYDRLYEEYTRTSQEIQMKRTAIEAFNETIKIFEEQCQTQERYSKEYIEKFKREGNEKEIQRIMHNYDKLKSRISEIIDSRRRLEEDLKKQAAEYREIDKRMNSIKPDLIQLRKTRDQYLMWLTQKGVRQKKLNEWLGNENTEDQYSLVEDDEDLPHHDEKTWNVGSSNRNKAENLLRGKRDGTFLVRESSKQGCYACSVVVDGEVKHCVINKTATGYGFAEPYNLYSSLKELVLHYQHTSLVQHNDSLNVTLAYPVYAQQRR
Method in brief: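 IC50 derived by fitting percent control activity against log inhibitor concentration. Radiolabelled product was measured by scintillation counting on WGA SPA beads after overnight shaking. The kinase reaction used 4 nM p110δ/p85α, 20 μM ATP (with [γ-33P]ATP) and 20 μM PIP2 at pH 6.7 and room temperature, with 0.5% DMSO final.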

PI3Kδ, sequence (O00329 whole entry, canonical isoform): as the sequence (O00329 whole entry) above
PI3Kδ, sequence (P27986 whole entry partner, canonical isoform): as the sequence (P27986 whole entry partner) above

Row | SMILES | IC50 (PI3Kδ) | IC50 (PI3Kδ (p110δ/p85α))
1 | COc1c(C(C)n2ccc(=O)c3c(N)ncnc32)cc(Cl)c(C)c1-c1cccc(S(=O)(=O)N(C)C)c1 (racemic) [Example 32, 3′-[1-(4-Amino-5-oxopyrido[2,3-d]pyrimidin-8(5H)-yl)ethyl]-5′-chloro-2′-methoxy-N,N,6′-trimethylbiphenyl-3-sulfonamide bis(trifluoroacetate)] | – | ≤ 10 nM
2 | COc1c(C(C)n2nc(C)c3c(N)ncnc32)cc(Cl)c(C)c1C1CNC(=O)CO1 (single isomer, unassigned) [324 (1st peak), 6-{3-[1-(4-Amino-3-methyl-1H-pyrazolo[3,4-d]pyrimidin-1-yl)ethyl]-5-chloro-2-methoxy-6-methylphenyl}morpholin-3-one] | – | 50 to 200 nM
3 | COc1c(C(C)n2nc(C)c3c(N)ncnc32)cc(Cl)c(C)c1-c1ccnc(N2CC(O)C2)c1 (single isomer, unassigned) [Example 187, 1-(4-(3-(1-(4-amino-3-methyl-1H-pyrazolo[3,4-d]pyrimidin-1-yl)ethyl)-5-chloro-2-methoxy-6-methylphenyl)pyridin-2-yl)azetidin-3-ol] | – | ≤ 10 nM

The remaining lines, values ahead:

Row | IC50 (PI3Kδ) | IC50 (PI3Kδ (p110δ/p85α)) | SMILES
4 | 50 to 200 nM | – | COc1c([C@@H](C)n2nc(C)c3c(N)ncnc32)cc(Cl)c(C#N)c1C1CN(C[C@@H](C)O)C1 [Example 363, 4-((R)-1-(4-amino-3-methyl-1H-pyrazolo[3,4-d]pyrimidin-1-yl)ethyl)-6-chloro-2-(1-((R)-2-hydroxypropyl)azetidin-3-yl)-3-methoxybenzonitrile]
5 | – | ≤ 10 nM | COc1c(C(C)n2nc(C)c3c(N)ncnc32)cc(Cl)c(Cl)c1C1CN(CCO)C1 (single isomer, unassigned) [Example 300, 2-(3-{3-[1-(4-Amino-3-methyl-1H-pyrazolo[3,4-d]pyrimidin-1-yl)ethyl]-5,6-dichloro-2-methoxyphenyl}azetidin-1-yl)ethano]
6 | – | ≤ 10 nM | CCOc1c(C(C)n2nc(C)c3c(N)ncnc32)cc(Cl)c(C#N)c1C1CN(CCOC)C1 (centres unmarked) [Example 225, 4-[1-(4-Amino-3-methyl-1H-pyrazolo[3,4-d]pyrimidin-1-yl)ethyl]-6-chloro-3-ethoxy-2-[1-(2-methoxyethyl)azetidin-3-yl]benzonitrile]
7 | – | 10 to 50 nM | COc1c(C(C)n2nc(C)c3c(N)ncnc32)cc(Cl)c(C)c1C1CC1 (single isomer, unassigned) [Example 192, 1-[1-(5-Chloro-3-cyclopropyl-2-methoxy-4-methylphenyl)ethyl]-3-methyl-1H-pyrazolo[3,4-d]pyrimidin-4-amine]
8 | – | ≤ 10 nM | CCOc1c(C(C)n2nc(C)c3c(N)ncnc32)cc(Cl)c(F)c1C1CN(CC)C1 (racemic) [Example 146, 1-{1-[5-Chloro-2-ethoxy-3-(1-ethylazetidin-3-yl)-4-fluorophenyl]ethyl}-3-methyl-1H-pyrazolo[3,4-d]pyrimidin-4-amine]
